Paper PMC7615656 (European journal of pharmacology, 2010)

Assays:
[1] = target: recombinant rat α3β3γ2F77I receptors (Rattus norvegicus, UniProt P18508+P20236, F115I); assay: Two-electrode voltage clamp of GABA-induced chloride currents in Xenopus oocytes; type: cell-based; details: for efficacy (% GABA EC3): ns = not significant
[2] = target: recombinant rat α1β3γ2 receptors (Rattus norvegicus, UniProt P18508+P62813); assay: as above; type: cell-based; details: for efficacy (% GABA EC3): α1β3γ2, ns = not significant
recombinant rat α1β3γ2 receptors, sequence (P62813 28-455): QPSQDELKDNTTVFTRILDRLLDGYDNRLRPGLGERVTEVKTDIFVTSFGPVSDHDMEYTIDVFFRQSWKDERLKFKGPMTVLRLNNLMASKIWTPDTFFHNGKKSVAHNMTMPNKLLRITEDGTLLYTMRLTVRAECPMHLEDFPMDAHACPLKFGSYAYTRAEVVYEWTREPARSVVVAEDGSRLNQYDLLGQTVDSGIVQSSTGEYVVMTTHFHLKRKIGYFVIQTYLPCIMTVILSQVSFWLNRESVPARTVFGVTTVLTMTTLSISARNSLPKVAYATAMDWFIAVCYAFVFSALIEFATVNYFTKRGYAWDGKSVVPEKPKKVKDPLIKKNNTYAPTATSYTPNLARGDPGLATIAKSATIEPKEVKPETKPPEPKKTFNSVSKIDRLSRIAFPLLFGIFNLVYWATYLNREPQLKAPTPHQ
recombinant rat α1β3γ2 receptors, sequence (P63079 26-473 partner): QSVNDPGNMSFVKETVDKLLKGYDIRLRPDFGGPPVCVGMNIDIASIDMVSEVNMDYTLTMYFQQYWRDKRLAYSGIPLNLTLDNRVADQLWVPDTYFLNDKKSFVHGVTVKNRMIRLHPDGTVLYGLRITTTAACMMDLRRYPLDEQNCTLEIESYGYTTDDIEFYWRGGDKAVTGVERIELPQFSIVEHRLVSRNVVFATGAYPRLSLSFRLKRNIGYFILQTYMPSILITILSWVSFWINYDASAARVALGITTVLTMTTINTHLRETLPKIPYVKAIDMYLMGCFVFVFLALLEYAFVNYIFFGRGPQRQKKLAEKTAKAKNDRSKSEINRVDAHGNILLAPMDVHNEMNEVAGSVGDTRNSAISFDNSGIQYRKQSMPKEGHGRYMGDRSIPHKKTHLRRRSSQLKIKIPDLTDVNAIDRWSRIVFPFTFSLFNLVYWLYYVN
recombinant rat α1β3γ2 receptors, sequence (P18508 39-466): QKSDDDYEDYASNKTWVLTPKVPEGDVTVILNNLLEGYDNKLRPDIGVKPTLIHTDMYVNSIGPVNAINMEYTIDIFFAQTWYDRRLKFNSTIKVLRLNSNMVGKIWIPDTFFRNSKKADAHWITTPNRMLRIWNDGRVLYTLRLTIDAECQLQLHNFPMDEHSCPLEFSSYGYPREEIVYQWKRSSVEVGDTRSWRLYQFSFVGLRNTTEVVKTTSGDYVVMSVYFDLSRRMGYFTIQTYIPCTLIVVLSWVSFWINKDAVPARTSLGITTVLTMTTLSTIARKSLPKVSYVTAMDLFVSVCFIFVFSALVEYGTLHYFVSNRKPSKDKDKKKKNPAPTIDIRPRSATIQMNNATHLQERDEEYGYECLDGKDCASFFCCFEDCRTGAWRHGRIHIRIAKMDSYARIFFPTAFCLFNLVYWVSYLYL

[3] = target: recombinant rat α3β3γ2 receptors (Rattus norvegicus, UniProt P18508+P20236); assay: as above; type: cell-based; details: for efficacy (% GABA EC3): α3β3γ2, ns = not significant
[4] = target: recombinant rat α5β3γ2F77I receptors (Rattus norvegicus, UniProt P18508+P19969, F115I); assay: as above; type: cell-based; details: for efficacy (% GABA EC3): ns = not significant
[5] = target: recombinant rat α2β3γ2 receptors (Rattus norvegicus, UniProt P18508+P23576); assay: as above; type: cell-based; details: α2β3γ2; for efficacy (% GABA EC3): ns = not significant
[6] = target: recombinant rat α4β3γ2F77I receptors (Rattus norvegicus, UniProt P18508+P28471, F115I); assay: as above; type: cell-based; details: 10 μM, ns = not significant
[7] = target: recombinant rat α4β3γ2 receptors (Rattus norvegicus, UniProt P18508+P28471); assay: as above; type: cell-based; details: α4β3γ2; for efficacy (% GABA EC3): ns = not significant; for maximal effect on GABA-induced chloride flux (GABA EC3), % of control current: control current = 100%
recombinant rat α4β3γ2 receptors, sequence (P28471 36-552): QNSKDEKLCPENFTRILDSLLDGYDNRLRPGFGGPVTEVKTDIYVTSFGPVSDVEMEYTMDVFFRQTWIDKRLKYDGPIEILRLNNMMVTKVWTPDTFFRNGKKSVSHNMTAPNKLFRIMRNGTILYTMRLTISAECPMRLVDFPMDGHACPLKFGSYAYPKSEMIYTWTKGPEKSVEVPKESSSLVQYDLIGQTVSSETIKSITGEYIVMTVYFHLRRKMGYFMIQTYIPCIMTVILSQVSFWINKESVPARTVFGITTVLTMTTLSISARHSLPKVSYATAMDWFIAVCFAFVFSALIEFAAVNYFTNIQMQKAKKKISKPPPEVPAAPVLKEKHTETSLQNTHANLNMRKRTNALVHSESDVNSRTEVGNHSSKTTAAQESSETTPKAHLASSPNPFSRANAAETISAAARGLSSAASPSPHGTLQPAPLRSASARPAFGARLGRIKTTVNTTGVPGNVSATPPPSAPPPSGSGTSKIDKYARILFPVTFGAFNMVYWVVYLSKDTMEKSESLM
recombinant rat α4β3γ2 receptors, sequence (P63079 26-473 partner): as the sequence (P63079 26-473 partner) above
recombinant rat α4β3γ2 receptors, sequence (P18508 39-466): as the sequence (P18508 39-466) above

[8] = target: recombinant rat α1β3γ2F77I receptors (Rattus norvegicus, UniProt P18508+P62813, F115I); assay: as above; type: cell-based; details: for efficacy (% GABA EC3): ns = not significant
recombinant rat α1β3γ2F77I receptors, sequence (P62813 28-455): as the sequence (P62813 28-455) above
recombinant rat α1β3γ2F77I receptors, sequence (P63079 26-473 partner): as the sequence (P63079 26-473 partner) above
recombinant rat α1β3γ2F77I receptors, sequence (P18508 39-466 F115I): as the sequence (P18508 39-466) above, with F77I counted along it

[9] = target: recombinant rat α6β3γ2 receptors (Rattus norvegicus, UniProt P18508+P30191); assay: as above; type: cell-based; details: α6β3γ2; for efficacy (% GABA EC3): ns = not significant; for maximal effect on GABA-induced chloride flux (GABA EC3), % of control current: control current = 100%
[10] = target: recombinant rat α5β3γ2 receptors (Rattus norvegicus, UniProt P18508+P19969); assay: as above; type: cell-based; details: for efficacy (% GABA EC3): α5β3γ2, ns = not significant
[11] = target: recombinant rat α2β3γ2F77I receptors (Rattus norvegicus, UniProt P18508+P23576, F115I); assay: as above; type: cell-based; details: for efficacy (% GABA EC3): ns = not significant
[12] = test system: GABAA receptors containing the γ2F77I mutation; assay: Modulation of GABA EC3 in receptors containing the γ2F77I mutation; type: cell-based, rat; details: GABAA receptors containing the γ2F77I mutation
[13] = read-out: efficacy (% GABA EC3)

CCc1c(C(=O)OC)ncc2[nH]c3cc(OC)c(OC)cc3c12 [DMCM, methyl-6,7-dimethoxy-4-ethyl-β-carboline-3-carboxylate]
efficacy (% GABA EC3) ([1]; 10 nM, α3β3γ2F77I): ns
efficacy (% GABA EC3) ([1]; 100 nM, α3β3γ2F77I): ns
efficacy (% GABA EC3) ([1]; 1 μM, α3β3γ2F77I): 126 ± 5 % GABA EC3
efficacy (% GABA EC3) ([1]; 10 μM, α3β3γ2F77I): 281 ± 26 % GABA EC3
efficacy (% GABA EC3) ([2]; 10 nM): 87 ± 8 % GABA EC3
efficacy (% GABA EC3) ([2]; 100 nM): 79 ± 11 % GABA EC3
efficacy (% GABA EC3) ([2]; 1 μM): ns
efficacy (% GABA EC3) ([2]; 10 μM): 232 ± 54 % GABA EC3
efficacy (% GABA EC3) ([3]; 10 nM): 78 ± 1 % GABA EC3
efficacy (% GABA EC3) ([3]; 100 nM): 69 ± 1 % GABA EC3
efficacy (% GABA EC3) ([3]; 1 μM): 75 ± 3 % GABA EC3
efficacy (% GABA EC3) ([3]; 10 μM): 185 ± 15 % GABA EC3
efficacy (% GABA EC3) ([4]; 10 nM, α5β3γ2F77I): ns
efficacy (% GABA EC3) ([4]; 100 nM, α5β3γ2F77I): ns
efficacy (% GABA EC3) ([4]; 1 μM, α5β3γ2F77I): ns
efficacy (% GABA EC3) ([4]; 10 μM, α5β3γ2F77I): 211 ± 40 % GABA EC3
efficacy (% GABA EC3) ([5]; 10 nM): 71 ± 7 % GABA EC3
efficacy (% GABA EC3) ([5]; 100 nM): 54 ± 5 % GABA EC3
efficacy (% GABA EC3) ([5]; 1 μM): 54 ± 3 % GABA EC3
efficacy (% GABA EC3) ([5]; 10 μM): ns
efficacy (% GABA EC3) [6]: 155 ± 9 % GABA EC3
efficacy (% GABA EC3) ([7]; 10 nM): ns
efficacy (% GABA EC3) ([7]; 100 nM): 77 ± 1 % GABA EC3
efficacy (% GABA EC3) ([7]; 1 μM): 88 ± 2 % GABA EC3
efficacy (% GABA EC3) ([7]; 10 μM): 155 ± 18 % GABA EC3
efficacy (% GABA EC3) ([8]; 10 nM, α1β3γ2F77I): ns
efficacy (% GABA EC3) ([8]; 100 nM, α1β3γ2F77I): ns
efficacy (% GABA EC3) ([8]; 1 μM, α1β3γ2F77I): 123 ± 3 % GABA EC3
efficacy (% GABA EC3) ([8]; 10 μM, α1β3γ2F77I): 269 ± 3 % GABA EC3
efficacy (% GABA EC3) ([9]; 10 nM): ns
efficacy (% GABA EC3) ([9]; 100 nM): 118 ± 9 % GABA EC3
efficacy (% GABA EC3) ([9]; 1 μM): 189 ± 21 % GABA EC3
efficacy (% GABA EC3) ([9]; 10 μM): 353 ± 22 % GABA EC3
efficacy (% GABA EC3) ([10]; 10 nM): 53 ± 4 % GABA EC3
efficacy (% GABA EC3) ([10]; 100 nM): 52 ± 5 % GABA EC3
efficacy (% GABA EC3) ([10]; 1 μM): 56 ± 6 % GABA EC3
efficacy (% GABA EC3) ([10]; 10 μM): 145 ± 14 % GABA EC3
efficacy (% GABA EC3) ([11]; 10 nM, α2β3γ2F77I): 103 ± 1 % GABA EC3
efficacy (% GABA EC3) ([11]; 100 nM, α2β3γ2F77I): 111 ± 2 % GABA EC3
efficacy (% GABA EC3) ([11]; 1 μM, α2β3γ2F77I): 123 ± 1 % GABA EC3
efficacy (% GABA EC3) ([11]; 10 μM, α2β3γ2F77I): 283 ± 17 % GABA EC3

CNC(=O)c1cc2c(cn1)[nH]c1ccccc12 [FG7142, N-methyl-β-carboline-3-carboxamide]
efficacy (% GABA EC3) ([1]; 100 nM, α3β3γ2F77I): ns
activity at 1 µM [1, 13]: 115 ± 5%
activity at 10 µM [1, 13]: 126 ± 6%
efficacy (% GABA EC3) ([2]; 100 nM): ns
activity at 1 µM [2, 13]: 88 ± 5%
activity at 10 µM [2, 13]: 92 ± 4%
efficacy (% GABA EC3) ([3]; 100 nM): ns
activity at 1 µM [3, 13]: 95 ± 2%
activity at 10 µM [3, 13]: 91 ± 2%
activity at 0.1 µM [4, 13]: 111 ± 2%
activity at 1 µM [4, 13]: 112 ± 4%
activity at 10 µM [4, 13]: 122 ± 4%
efficacy (% GABA EC3) ([5]; 100 nM): ns
efficacy (% GABA EC3) ([5]; 1 μM): ns
efficacy (% GABA EC3) ([5]; 10 μM): ns
maximal effect on GABA-induced chloride flux (GABA EC3), % of control current ([5]; control current = 100%): the reduction was not significant
efficacy (% GABA EC3) ([7]; 100 nM): ns
efficacy (% GABA EC3) ([7]; 1 μM): ns
efficacy (% GABA EC3) ([7]; 10 μM): ns
maximal effect on GABA-induced chloride flux (GABA EC3), % of control current [7]: did not significantly influence
activity at 0.1 µM [8, 13]: 107 ± 1%
activity at 1 µM [8, 13]: 111 ± 1%
activity at 10 µM [8, 13]: 124 ± 3%
efficacy (% GABA EC3) ([9]; 100 nM): ns
efficacy (% GABA EC3) ([9]; 1 μM): ns
efficacy (% GABA EC3) ([9]; 10 μM): ns
maximal effect on GABA-induced chloride flux (GABA EC3), % of control current [9]: did not significantly influence
efficacy (% GABA EC3) ([10]; 100 nM): ns
efficacy (% GABA EC3) ([10]; 1 μM): ns
activity at 10 µM [10, 13]: 84 ± 5%
efficacy (% GABA EC3) ([11]; 100 nM, α2β3γ2F77I): ns
efficacy (% GABA EC3) ([11]; 1 μM, α2β3γ2F77I): ns
activity at 10 µM [11, 13]: 117 ± 4%
maximum stimulation of the GABA-induced current [12]: 126 ± 6%

CN1C(=O)CN=C(c2ccccc2)c2cc(Cl)ccc21 [Diazepam, 7-chloro-1,3-dihydro-1-methyl-5-phenyl-2H-1,4-benzodiazepin-2-one]
efficacy (% GABA EC3) ([1]; 100 nM, α3β3γ2F77I): 166 ± 17 % GABA EC3
efficacy (% GABA EC3) ([1]; 1 μM, α3β3γ2F77I): 263 ± 39 % GABA EC3
efficacy (% GABA EC3) ([1]; 10 μM, α3β3γ2F77I): 272 ± 36 % GABA EC3
efficacy for enhancing GABA EC3 in receptors containing the γ2F77I mutation ([1]; α3β3γ2F77I): 272 ± 36%
efficacy (% GABA EC3) ([2]; 100 nM): 239 ± 23 % GABA EC3
efficacy (% GABA EC3) ([2]; 1 μM): 314 ± 29 % GABA EC3
efficacy (% GABA EC3) ([2]; 10 μM): 324 ± 22 % GABA EC3
efficacy (% GABA EC3) ([3]; 100 nM): 437 ± 32 % GABA EC3
efficacy (% GABA EC3) ([3]; 1 μM): 752 ± 48 % GABA EC3
efficacy (% GABA EC3) ([3]; 10 μM): 738 ± 36 % GABA EC3
efficacy (% GABA EC3) ([4]; 100 nM, α5β3γ2F77I): 135 ± 7 % GABA EC3
efficacy (% GABA EC3) ([4]; 1 μM, α5β3γ2F77I): 170 ± 4 % GABA EC3
efficacy (% GABA EC3) ([4]; 10 μM, α5β3γ2F77I): 154 ± 2 % GABA EC3
efficacy for enhancing GABA EC3 in receptors containing the γ2F77I mutation ([4]; α5β3γ2F77I): 154 ± 2%
efficacy (% GABA EC3) ([5]; 100 nM): 426 ± 22 % GABA EC3
efficacy (% GABA EC3) ([5]; 1 μM): 536 ± 26 % GABA EC3
efficacy (% GABA EC3) ([5]; 10 μM): 532 ± 20 % GABA EC3
efficacy (% GABA EC3) ([7]; 1 μM): ns
efficacy (% GABA EC3) ([7]; 10 μM): ns
maximal effect on GABA-induced chloride flux (GABA EC3), % of control current [7]: did not stimulate
efficacy (% GABA EC3) ([8]; 100 nM, α1β3γ2F77I): 162 ± 17 % GABA EC3
efficacy (% GABA EC3) ([8]; 1 μM, α1β3γ2F77I): 220 ± 21 % GABA EC3
efficacy (% GABA EC3) ([8]; 10 μM, α1β3γ2F77I): 229 ± 26 % GABA EC3
efficacy for enhancing GABA EC3 in receptors containing the γ2F77I mutation ([8]; α1β3γ2F77I): 229 ± 26%
efficacy (% GABA EC3) ([9]; 1 μM): ns
efficacy (% GABA EC3) ([9]; 10 μM): ns
maximal effect on GABA-induced chloride flux (GABA EC3), % of control current [9]: did not stimulate
efficacy (% GABA EC3) ([10]; 100 nM): 274 ± 16 % GABA EC3
efficacy (% GABA EC3) ([10]; 1 μM): 342 ± 21 % GABA EC3
efficacy (% GABA EC3) ([10]; 10 μM): 321 ± 14 % GABA EC3
efficacy (% GABA EC3) ([11]; 100 nM, α2β3γ2F77I): 181 ± 1 % GABA EC3
efficacy (% GABA EC3) ([11]; 1 μM, α2β3γ2F77I): 265 ± 4 % GABA EC3
efficacy (% GABA EC3) ([11]; 10 μM, α2β3γ2F77I): 278 ± 6 % GABA EC3
efficacy for enhancing GABA EC3 in receptors containing the γ2F77I mutation ([11]; α2β3γ2F77I): 278 ± 6%
